Data on nine compounds can be found in ChEMBL document CHEMBL3352805, “Structure and Stereochemical Determination of Hypogeamicins from a Cave-Derived Actinomycete” (J Nat Prod, 2014).

In brackets after ≈: the same amount, converted by molar mass. Activity calls are given as the source filed them.

Test [1] can be described thus: (§1) Cytotoxicity against human TCT1 cells after 48 hrs by calcein-AM dye based fluorescence assay. The test is classed as functional, cell-based. As to conditions: TCT1, 48 h.
The subject of test [2] is Bacillus subtilis. Nature of the test: Antibacterial activity against Bacillus subtilis. It is filed as functional.
Test [3] has as its system TCT1. The description is as §1. The test is classed as functional, cell-based.

With `CC(=O)O[C@H]1C(=O)[C@@]2(C)[C@H]([C@H](OC(=O)c3ccccc3)[C@]3(O)C[C@H](OC(=O)[C@H](O)[C@@H](NC(=O)c4ccccc4)c4ccccc4)C(C)=C1C3(C)C)[C@]1(OC(C)=O)CO[C@@H]1C[C@@H]2O` [PACLITAXEL], the half-inhibitory concentration (IC50) in test [1] was 0.0025 µM.
In test [2], GENTAMICIN yielded a minimal inhibitory concentration (MIC) of 0.125 µg/mL.
Take `CCC[C@H]1O[C@H](CC(N)=O)C[C@]2(O)C(=O)c3cc(OC)cc(O)c3C(=O)[C@@]12O`: in test [2], the MIC was determined as 28 µg/mL (≈ 71.2 µM). Besides, the outcome in test [3] was inactive.
Take `CC[C@H]1OC(=O)[C@H](C)[C@@H](O[C@H]2C[C@@](C)(OC)[C@@H](O)[C@H](C)O2)[C@H](C)[C@@H](O[C@@H]2O[C@H](C)C[C@H](N(C)C)[C@H]2O)[C@](C)(O)C[C@@H](C)C(=O)[C@H](C)[C@@H](O)[C@]1(C)O` [ERYTHROMYCIN]: the MIC in test [2] was determined as 0.125 µg/mL (≈ 0.17 µM).
`COC(=O)CC1CC2(SC34CC(CC(=O)OC)OC(C)C3(O)C(=O)c3c(O)cccc3C4=O)C(=O)c3cccc(O)c3C(=O)C2(O)C(C)O1` (stereo not drawn): the 50% inhibitory concentration (IC50) in test [1] is 6.4 µM.
For `CCC[C@H]1O[C@H](CC(N)=O)C[C@]2(S[C@]34C[C@@H](CC(N)=O)O[C@H](CCC)[C@]3(O)C(=O)c3c(O)cc(OC)cc3C4=O)C(=O)c3cc(OC)cc(O)c3C(=O)[C@@]12O`, the MIC entry in test [2] is “inactive”. Also, the Cytotoxicity entry in test [3] is “Active”.
Regarding `CCC[C@H]1O[C@H](C(O)C(N)=O)C[C@]23O[C@]12C(=O)c1c(O)cc(OC)cc1C3=O` (stereo partly drawn), it took 7 µg/mL (≈ 17.9 µM) to inhibit growth in test [2] (MIC). For the same compound, the result in test [3] was inactive.
On to `COC(=O)CC1CC2(SC34CC(CCO)OC(C)C3(O)C(=O)c3c(O)cccc3C4=O)C(=O)c3cccc(O)c3C(=O)C2(O)C(C)O1` (stereo not drawn), for which the IC50 in test [1] was 6.4 µM.
`CCC[C@H]1O[C@H](CC(N)=O)C[C@]23O[C@]12C(=O)c1c(O)cc(OC)cc1C3=O`: it took 7 µg/mL (≈ 18.6 µM) to inhibit growth in test [2] (MIC). In addition, the result in test [3] was inactive.

The IC50 is the point on the concentration scale where inhibition reaches its midpoint. By MIC is commonly meant the smallest concentration in the dilution series that meets the test's criterion for growth inhibition.
